Results taken from patent US20250026769A1, “PAPD5 INHIBITORS AND METHODS OF USE THEREOF” (The Children's Medical Center Corporation, priority 2021, published 2025).
Like-named read-outs stand apart in the source and are kept apart here.

Experiments:
[1] = test system: TERC 3′ end processing in DC patient iPSCs; assay: TERC 3′ end processing by RACE in DC patient / PARN-mutant iPSCs; assay type: cell-based, human; details: Homo sapiens, iPSC; patient iPSCs; concentration class at which activity is seen; read-out: iPSC-based RACE activity
Experimental: Compound 266A had activity ˜2-logs higher in the in vitro RNA oligoadenylation assay compared to the parental compound cmpd. 1, approximating the activity of RG7834 (FIG. 7). […] 1. Compounds 295A and 296A had activity 2-3 logs higher in DC patient iPSCs, showing TERC maturation at 1 nM, similar to RG7834 (FIG. 6). […] Referring to Table 1D, “+” refers to activity at 1 μM, “++” refers to activity above 1 nM and below 1 μM, and “+++” refers to activity at <1 nM, “ND” refers to not determined.

[2] = test system: hepatitis B surface antigen (HBSAg) from HepG2.2.15 cells, a hepatitis B virus-expressing cell line; assay: HBsAg ELISA in supernatant of HepG2.2.15 cells; assay type: cell-based; details: HepG2.2.15, 96 h
Experimental: HepG2.2.15 cells, a hepatitis B virus-expressing cell line (Sells, M. A. et al., PNAS, 1987), were plated at 50,000 cells/well in DMEM/F12 media (Gibco) with 10% fetal bovine serum (Omega Scientific) in a 24-well or 96-well plate (Corning), in 2-3 replicates for each test compound/concentration plus controls, and incubated in a humidified 5% CO2 chamber at 37° C. The next day, media was aspirated, cells were washed once with phosphate buffered saline, pH7.4 (Gibco), and 1 mL DMEM/12 media was replaced. Test compounds were added in 3-fold dilutions from up to 100 μM down to 333 pM, with vehicle (dimethylsulfoxide (Sigma)) as a control. After four days of culture in a humidified 5% CO2 chamber at 37° C., plates were spun down in a centrifuge at 300 g for 10 minutes at room temperature. Supernatant from each well was collected and either frozen at −20° C. or used directly for quantitation of hepatitis B surface antigen (HBSAg) in an enzyme-linked immunosorbent assay (ELISA). The supernatant was tested using the HBSAg ELISA kit (Abnova Cat. No KA0286) per the manufacturer's instructions. Results of replicates were averaged and nonlinear curve fitting was used to determine the half maximal inhibitory concentration (IC50) for each test compound.

rPAPD5 = molecular target: T1, rPAPD5 (Homo sapiens, UniProt Q8NDF8); assay: differential scanning fluorimetry (DSF) binding and stabilization of rPAPD5; details: for ΔTm at 1 µM: 1 μM test compound (Table 2a), read-out: ΔTm at 1 μM; for ΔTm at 100 µM: 100 μM test compound, read-out: ΔTm at 100 μM
T1 construct: made in house
T1 sequence (Q8NDF8 68-698 isoform Q8NDF8-5 limits assumed): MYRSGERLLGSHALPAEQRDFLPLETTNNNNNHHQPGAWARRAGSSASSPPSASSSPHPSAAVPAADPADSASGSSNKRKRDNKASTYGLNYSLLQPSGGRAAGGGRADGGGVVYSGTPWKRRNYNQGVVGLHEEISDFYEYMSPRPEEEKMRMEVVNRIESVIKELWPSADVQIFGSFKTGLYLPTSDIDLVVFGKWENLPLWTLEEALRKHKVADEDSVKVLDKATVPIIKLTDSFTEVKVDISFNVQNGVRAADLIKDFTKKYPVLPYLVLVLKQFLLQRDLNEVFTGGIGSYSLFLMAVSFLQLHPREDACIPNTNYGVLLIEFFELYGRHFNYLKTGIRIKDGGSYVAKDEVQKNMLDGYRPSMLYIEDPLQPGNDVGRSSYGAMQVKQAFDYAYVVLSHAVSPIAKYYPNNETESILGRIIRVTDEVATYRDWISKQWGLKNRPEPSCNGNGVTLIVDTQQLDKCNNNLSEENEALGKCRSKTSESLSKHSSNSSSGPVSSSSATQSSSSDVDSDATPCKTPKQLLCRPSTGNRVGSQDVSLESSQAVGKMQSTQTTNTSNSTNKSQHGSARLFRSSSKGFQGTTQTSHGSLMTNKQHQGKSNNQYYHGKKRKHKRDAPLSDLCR
Method in brief: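 Differential scanning fluorimetry was used to measure how test compounds bind and thermally stabilize rPAPD5. The reaction contained SYPRO orange dye diluted 1:5000 in […] of buffer with […], 25 mM Tris-HCl, 5 mM MgCl2 and 50 mM KCl. ΔTm was calculated relative to a DMSO control.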

[3] = 10 μM test compound (Table 2a), read-out: ΔTm at 10 μM
[4] = 10 μM test compound, shift vs DMSO control, read-out: ΔTm (Table 2, starred: the compound was tested at 10 μM)

Compound | minimal effective concentration [1] [µM] | IC50 [2] [nM] | ΔTm at 1 µM (rPAPD5) [°C] | ΔTm at 10 µM (rPAPD5; [3]) [°C] | ΔTm at 100 µM (rPAPD5; shift vs DMSO control) [°C] | ΔTm at 10 µM (rPAPD5; [4]) [°C]
CN1CC=C(c2cnc3ccc(Cl)cc3c2Nc2ccc(Cl)cc2C(=O)O)CC1 [Compound 367A, 5-chloro-2-[[6-chloro-3-(1-methyl-3,6-dihydro-2H-pyridin-4-yl)-4-quinolyl]amino]benzoic acid] | 1 | 902 | > 5 | > 5 | > 5 | 
Cc1ccc(Nc2c(S(=O)(=O)N3CCOCC3)cnc3ccc(Cl)cc23)c(C(=O)O)c1 [Compound 269A, 2-[(6-chloro-3-morpholinosulfonyl-4-quinolyl)amino]-5-methyl-benzoic acid] |  | 1680 |  |  | > 5 | 
O=C(O)c1cc(Cl)ccc1Nc1c(N2CCC(=NO)CC2)cnc2ccc(Cl)cc12 [Compound 376A, 5-chloro-2-[[6-chloro-3-(4-hydroxyimino-1-piperidyl)-4-quinolyl]amino]benzoic acid] | 1 | 101 | > 5 | > 5 | > 5 | 
O=C(O)c1cc(F)ccc1Nc1c(S(=O)(=O)N2CCOCC2)cnc2ccc(Cl)cc12 [Compound 267A, 2-[(6-chloro-3-morpholinosulfonyl-4-quinolyl)amino]-5-fluoro-benzoic acid] |  | 4840 |  |  | > 5 | 
O=C(O)c1ccccc1Nc1c(S(=O)(=O)Nc2nn[nH]n2)cnc2ccc(Cl)cc12 [Compound 226A, 2-[[6-chloro-3-(2H-tetrazol-5-ylsulfamoyl)-4-quinolyl]amino]benzoic acid] |  | 9460 |  |  | > 5 | 
O=C(O)c1ccccc1Nc1c(C2=CCC(F)(F)CC2)cnc2ccc(Cl)cc12 [Compound 205A-INT, 2-[[6-chloro-3-(4,4-difluorocyclohexen-1-yl)-4-quinolyl]amino]benzoic acid] |  | 1300 |  |  | > 5 | 
O=C(O)c1ccccc1Nc1c(-c2ncco2)cnc2ccc(Cl)cc12 [Compound 129A, 2-[(6-chloro-3-oxazol-2-yl-4-quinolyl)amino]benzoic acid] |  | 4600 |  |  | > 5 | 
O=C(O)c1cc(Cl)ccc1Nc1c(C2CCSCC2)cnc2ccc(Cl)cc12 [Compound 341A, 5-chloro-2-[(6-chloro-3-tetrahydrothiopyran-4-yl-4-quinolyl)amino]benzoic acid] | 0.001 to 1 | 84 | > 5 | > 5 |  | > 5
O=C(O)c1ccccc1Nc1c(-c2ncco2)cnc2ccc(Br)cc12 [Compound 130A] |  | 8890 |  |  | > 5 | 
Cc1ccc(Nc2c(C3=CCOCC3)cnc3ccc(Cl)cc23)c(C(=O)O)c1 [Compound 306A, 2-[[6-chloro-3-(3,6-dihydro-2H-pyran-4-yl)-4-quinolyl]amino]-5-methyl-benzoic acid] |  | 1050 |  |  | > 5 | 
O=C(O)c1cc(F)ccc1Nc1c(C2CCOCC2)cnc2ccc(Cl)cc12 [Compound 303A, 2-[(6-chloro-3-tetrahydropyran-4-yl-4-quinolyl)amino]-5-fluoro-benzoic acid] |  | 229 |  |  | > 5 | 
O=C(O)c1ccccc1Nc1c(NC2CCC(F)(F)CC2)cnc2ccc(Cl)cc12 [Compound 185A, 2-[[6-chloro-3-[(4,4-difluorocyclohexyl)amino]-4-quinolyl]amino]benzoic acid] |  | 2190 |  |  | > 5 | 
O=C(O)c1cc(Cl)ccc1Nc1c(N2CCSCC2)cnc2ccc(Cl)cc12 [Compound 346A, 5-chloro-2-[(6-chloro-3-thiomorpholino-4-quinolyl)amino]benzoic acid] | 0.001 to 1 | 88 | 1 to 5 | > 5 | > 5 | 
O=C(O)c1ccccc1Nc1c(C2CCSCC2)cnc2ccc(Cl)cc12 [Compound 298A, 2-[(6-chloro-3-tetrahydrothiopyran-4-yl-4-quinolyl)amino]benzoic acid] |  | 1750 |  |  | > 5 | 
O=C(O)c1ccccc1Nc1c(C2=CCOCC2)cnc2ccc(Cl)cc12 [Compound 204A-INT, 2-[[6-chloro-3-(3,6-dihydro-2H-pyran-4-yl)-4-quinolyl]amino]benzoic acid] |  | 2690 |  |  | > 5 | 
O=C(O)c1cc(Cl)ccc1Nc1c(C2=CCOC2)cnc2ccc(Cl)cc12 [Compound 401A, 5-chloro-2-[[6-chloro-3-(2,5-dihydrofuran-3-yl)-4-quinolyl]amino]benzoic acid] | 1 |  | > 5 | > 5 | > 5 | 
COc1ccc(Nc2c(S(=O)(=O)N3CCOCC3)cnc3ccc(Cl)cc23)c(C(=O)O)c1 [Compound 270A, 2-[(6-chloro-3-morpholinosulfonyl-4-quinolyl)amino]-5-methoxy-benzoic acid] |  | 4980 |  |  | > 5 | 
O=C(O)c1cc(Cl)ccc1Nc1c(N2CCC(Cl)(Cl)CC2)cnc2ccc(Cl)cc12 [Compound 430A, 5-chloro-2-[[6-chloro-3-(4,4-dichloro-1-piperidyl)-4-quinolyl]amino]benzoic acid] | < 0.001 |  | > 5 | > 5 |  | > 5
O=C(O)c1ccccc1Nc1c(C2CCOCC2)cnc2ccc(Cl)cc12 [Compound 204A, 2-[(6-chloro-3-tetrahydropyran-4-yl-4-quinolyl)amino]benzoic acid] |  | 3390 |  |  | > 5 | 
COc1ccc(Nc2c(C3CCOCC3)cnc3ccc(Cl)cc23)c(C(=O)O)c1 [Compound 307A, 2-[(6-chloro-3-tetrahydropyran-4-yl-4-quinolyl)amino]-5-methoxy-benzoic acid] |  | 1320 |  |  | > 5 | 
O=C(O)c1ccccc1Nc1c(S(=O)(=O)N2CCOCC2)cnc2ccc(F)cc12 [Compound 233A, 2-[(6-fluoro-3-morpholinosulfonyl-4-quinolyl)amino]benzoic acid] |  | 29100 |  |  | > 5 | 
O=C(O)c1cc(Cl)cc(F)c1Nc1c(S(=O)(=O)N2CCSCC2)cnc2ccc(Cl)cc12 [Compound 427A, 5-chloro-2-[(6-chloro-3-thiomorpholinosulfonyl-4-quinolyl)amino]-3-fluoro-benzoic acid] | 0.001 to 1 |  | > 5 | > 5 | > 5 | 
Cc1ccc(Nc2c(-c3ncco3)cnc3ccc(Cl)cc23)c(C(=O)O)c1 [Compound 301A, 2-[(6-chloro-3-oxazol-2-yl-4-quinolyl)amino]-5-methyl-benzoic acid] |  | 942 |  |  | > 5 | 
O=C(O)c1cc(Cl)ccc1Nc1c(C2=CCNCC2)cnc2ccc(Cl)cc12 [Compound 368A, 5-chloro-2-[[6-chloro-3-(1,2,3,6-tetrahydropyridin-4-yl)-4-quinolyl]amino]benzoic acid] | 1 |  | > 5 | > 5 | > 5 | 
Cc1ccc(Nc2c(C3CCOCC3)cnc3ccc(Cl)cc23)c(C(=O)O)c1 [Compound 305A, 2-[(6-chloro-3-tetrahydropyran-4-yl-4-quinolyl)amino]-5-methyl-benzoic acid] |  | 66 |  |  | > 5 | 
